In US20210071180A1, “MICRORNA 584-5P COMPOSITIONS AND METHODS FOR TREATING CANCER” (BOARD OF REGENTS, THE UNIVERSY OF TEXAS SYSTEM, priority 2018, published 2021):

Tests used:
Type in all cases: cell-based
neural stem cell markers = assay: qPCR analysis of neural stem cell markers; conditions: miR-584-5p mimic-transfected cells
Method: Several research groups have posited the presence of tumor-initiating cells in MBs (Manoranjan, B. et al. Pediatr Res 71, 516-522, (2012)). Moreover, the tumor-initiating cells in general have not responded to radiation and chemotherapy drugs (Manoranj an, B. et al. Pediatr Res 71, 516-522, (2012)). Therefore, it was tested whether miR-584 may inhibit MB tumor-initiating cell proliferation. Consistent with the characteristics of tumor-initiating cells, MB cells cultured in serum-free stem cell media formed tumor spheres that were serially passaged for many cycles (FIG. 14A). Bar graphs show number and size of medullospheres obtained from D556Med cells transfected with miR-NC or miR-584-5p mimic. The p-value was calculated using a standard Student t-test. Error bars represent mean±SEM. […] The p-value was calculated using one-way ANOVA followed by Sidak's multiple-comparisons test. Error bars represent mean±SEM. These findings are highly significant because, this study is one of the first to propose a role for miR-584-5p and its target genes in regulating MB stem cell proliferation.

eIF4E3 = assay: qPCR and Western blot of eIF4E3 in MB cells; conditions: transcript and protein levels, all cell lines tested
MB cells = assay: 53BP1 nuclear foci immunofluorescence (DNA strand breaks); conditions: vs scrambled-transfected MB cells
Method: FIG. 13C-D show representative immunofluorescence images showing 53BP1 foci in D556Med cells transfected with miR-NC or miR-584-5p mimic (C) or scramble-siRNA or eIF4E3/HDAC1-siRNAs (D) and treated with or without 10 Gy of IR.
Bar graphs next to images show average number of 53BP1 foci/cell. The p-values were determined by two-way ANOVA followed by Sidak's multiple-comparisons test. Error bars represent mean±SEM. Because miR-584-5p induces apoptosis, it was reasoned that DNA strand breaks induced by miR-584-5p and eIF4E3/HDAC1 silencing may not be properly repaired. To confirm those findings, a functional assay was performed to monitor homologous recombination (HR) because HR-dependent events repair IR-induced double-strand breaks in G2 phase. The ISceI-based DR-GFP reporter assay, which measures the frequency of double-strand break repair by HR (Gunn, A., Bennardo, N., Cheng, A. & Stark, J. M. Journal of Biological Chemistry 286, 42470-42482, (2011); Pierce, A. J., Johnson, R. D., Thompson, L. H. & Jasin, M. Genes & Development 13, 2633-2638, (1999); and Stark, J. M., Pierce, A. J., Oh, J., Pastink, A. & Jasin, M. Molecular and Cellular Biology 24, 9305-9316, (2004)), was used. […] The p-values were calculated using either Student t-tests (mimic) or one-way ANOVA followed by Dunnett's multiple-comparisons test (siRNAs). […]

D556Med cells = assay: c-Myc overexpression rescue, cell viability/clonogenic/migration; conditions: cells transfected with c-Myc expression vector
Method: FIG. 15A depicts a photomicrograph showing migrated MB cells transfected with control plasmid, c-Myc overexpression plasmid or c-Myc overexpression plasmid+miR-584-5p mimic.
Because c-Myc supports cancer stem cell growth, promotes radioresistance (Gravina, G. L. et al. Radiat Res 185, 411-422, (2016)), and has elevated levels in VCR-resistant cancer cells (He, Y., Zhang, J., Zhang, J. & Yuan, Y. Chin Med J (Engl) 113, 848-851 (2000)), it was tested whether miR-584-5p and its target genes may regulate c-Myc-amplified MB growth and therapy sensitization by targeting c-Myc levels/functions. […] In FIG. 14D, the p-values were calculated using standard Student t-tests. Error bars represent mean±SEM. Because no predicted miR-584-5p binding site exists in the c-Myc 3′-UTR, miR-584-5p probably regulates c-Myc levels indirectly. To test that possibility, it was assessed whether miR-584-5p target genes may regulate c-Myc levels in MB. Moreover, eIF4E1 (not eIF4E3) induced c-Myc protein expression in diffuse B-cell lymphoma cells (Landon, A. L. et al. Nat Commun 5, 5413, (2014)). […] Cell viability was assessed using alamarBlue. The p-value was calculated using one-way ANOVA followed by Sidak's multiple-comparisons test. […]

In the case of “miR-584-5p: microRNA mimic; nucleotide sequence UUAUGGUUUGCCUGGGACUGAG (SEQ ID NO: 1); purchased from Thermofisher (chemistry not given here)”, the “levels of neural stem cell markers” value (neural stem cell markers) is reported as “significantly reduced”, the “expression of eIF4E3” value (eIF4E3) is reported as “significantly reduced expression” and the 53BP1 foci (MB cells) is reported as “significantly more 53BP1 foci”. The “growth-promoting effect of c-Myc overexpression” value (D556Med cells) was “rescues cancer growth-promoting effects of c-Myc”.
